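A five-concentration, 48-hour dose response in 96-well plates underlies each endpoint, interpolated linearly between surrounding concentrations. Here, GI50 denotes the concentration required for 50% inhibition of growth. At the TGI there is no net growth.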
Key:
Assay in all cases: NCI-60 cell line screen, 48 h
A498 renal = system: A498 renal
ACHN renal = system: ACHN renal
BT-549 breast = system: BT-549 breast
CCRF-CEM leukemia = system: CCRF-CEM leukemia
EKVX NSCLC = system: EKVX NSCLC
HCC-2998 colon = system: HCC-2998 colon
HCT-15 colon = system: HCT-15 colon
HL-60(TB) leukemia = system: HL-60(TB) leukemia
HOP-62 NSCLC = system: HOP-62 NSCLC
HOP-92 NSCLC = system: HOP-92 NSCLC
HS 578T breast = system: HS 578T breast
HT29 colon = system: HT29 colon
IGROV1 ovarian = system: IGROV1 ovarian
K-562 leukemia = system: K-562 leukemia
KM12 colon = system: KM12 colon
LOX IMVI melanoma = system: LOX IMVI melanoma
M14 melanoma = system: M14 melanoma
MALME-3M melanoma = system: MALME-3M melanoma
MDA-MB-435 = system: MDA-MB-435
MOLT-4 leukemia = system: MOLT-4 leukemia
NCI-H226 lung = system: NCI-H226 lung
NCI-H23 lung = system: NCI-H23 lung
NCI-H460 lung = system: NCI-H460 lung

For `COC(=O)C1CCc2sc3ncnc(Nc4cn[nH]c4C(=O)Nc4ccc(CN5CCN(C)CC5)cc4)c3c21` (stereo unspecified), the GI50 (A498 renal) was 0.218 µM, the TGI (A498 renal) was 1.8 µM and the GI50 (ACHN renal) was 0.232 µM. It also gave a TGI (ACHN renal) of 10.1 µM, a GI50 (BT-549 breast) of 0.899 µM and a TGI (BT-549 breast) of 6.02 µM. The GI50 (CCRF-CEM leukemia) was 0.29 µM, the TGI (CCRF-CEM leukemia) was 2.98 µM and the GI50 (EKVX NSCLC) was 0.838 µM. It also gave a TGI (EKVX NSCLC) of 14 µM, a GI50 (HCC-2998 colon) of 1.82 µM and a TGI (HCC-2998 colon) of 31.5 µM. The GI50 (HCT-15 colon) was 0.423 µM, the TGI (HCT-15 colon) was greater than 100 µM and the GI50 (HL-60(TB) leukemia) was 1.68 µM. It also gave a TGI (HL-60(TB) leukemia) of 3.87 µM, a GI50 (HOP-62 NSCLC) of 0.453 µM and a TGI (HOP-62 NSCLC) of 19.5 µM. It also gave a GI50 (HOP-92 NSCLC) of 1.14 µM, a TGI (HOP-92 NSCLC) of 5.88 µM and a GI50 (HS 578T breast) of 0.54 µM. It also gave a TGI (HS 578T breast) of 12.7 µM, a GI50 (HT29 colon) of 0.619 µM and a TGI (HT29 colon) of 2.91 µM. It also gave a GI50 (IGROV1 ovarian) of 0.447 µM, a TGI (IGROV1 ovarian) greater than 100 µM and a GI50 (K-562 leukemia) of 0.254 µM. It also gave a TGI (K-562 leukemia) of 4.15 µM, a GI50 (KM12 colon) of 0.207 µM and a TGI (KM12 colon) of 2.63 µM. The GI50 (LOX IMVI melanoma) was 0.405 µM, the TGI (LOX IMVI melanoma) was 1.79 µM and the GI50 (M14 melanoma) was 0.708 µM. It also gave a TGI (M14 melanoma) of 2.14 µM, a GI50 (MALME-3M melanoma) of 1.98 µM and a TGI (MALME-3M melanoma) of 3.78 µM. The GI50 (MDA-MB-435) was 1.06 µM, the TGI (MDA-MB-435) was 3.38 µM and the GI50 (MOLT-4 leukemia) was 0.324 µM. It also gave a TGI (MOLT-4 leukemia) of 0.991 µM, a GI50 (NCI-H226 lung) of 0.588 µM and a TGI (NCI-H226 lung) greater than 100 µM. It also gave a GI50 (NCI-H23 lung) of 0.506 µM, a TGI (NCI-H23 lung) of 2.67 µM and a GI50 (NCI-H460 lung) of 0.331 µM. For the same molecule, the TGI (NCI-H460 lung) was 1.49 µM.
